Assay: In vivo biodistribution of radioactive ^99mTc complexes in female SD rats
Set-up: species or system female Sprague-Dawley (SD) rats
Details: for Biodistribution: Large Intestine / Biodistribution: Small Intestine / Biodistribution: Stomach: unit % ID
Protocol: Female SD rats (180-220 g, n=3) were fasted for 12 h before the experiment, and the purified radioactive 99mTc complexes 78-81 were prepared into physiological saline (containing 10% ethanol) solutions of about 250-350 μCi/mL. 200 μL of the above solution was injected into the tail vein of female SD rats, and the rats were killed by cervical dislocation at five time points, 15, 30, 60, 120 and 240 min after the tail vein injection. The blood, brain, heart, liver, spleen, lung, kidney, muscle, bone, large intestine, small intestine, stomach and tail were collected, weighed and counted, and the count distribution of each tissue and organ was calculated (unit: % ID/g, the unit of large intestine, small intestine and stomach is % ID), and the data are the mean±standard deviation of three mice in each phase. At the same time, 200 μL of the above solution was diluted to 20 mL, which was used as the % ID without deducting the tail count.

Question: Which “myocardial absolute uptake peak value (assessment)” value does the source give for `COC(C)(C)C[N+]#[C][99Tc-5]([C]#[N+]CC(C)(C)OC)([C]#[N+]CC(C)(C)OC)([C]#[N+]CC(C)(C)OC)([C]#[N+]CC(C)(C)OC)[C]#[N+]CC(C)(C)OCCCCCCSCCCCC(=O)O` [^99mTc complex 81] here?
Answer: close to the corresponding value of myocardial perfusion imaging agent ^99mTc-MIBI

Question: And the “Biodistribution: Blood” value (15 min post-injection)?
Answer: 0.018 ± 0.001 ID %/g

Question: What about the “Biodistribution: Bone” value (15 min post-injection) of the same compound?
Answer: 0.24 ± 0.05 ID %/g

Question: And the “Biodistribution: Heart” value (15 min post-injection)?
Answer: 3.37 ± 0.15 ID %/g

Question: And the “Biodistribution: Kidney” value (15 min post-injection)?
Answer: 9.30 ± 0.20 ID %/g

Question: And the “Biodistribution: Liver” value (15 min post-injection)?
Answer: 1.79 ± 0.26 ID %/g

Question: And the “Biodistribution: Lungs” value (15 min post-injection)?
Answer: 0.86 ± 0.17 ID %/g

Question: And the “Biodistribution: Muscle” value (15 min post-injection)?
Answer: 0.72 ± 0.11 ID %/g

Question: What about the “Biodistribution: Spleen” value (15 min post-injection) of the same compound?
Answer: 0.70 ± 0.06 ID %/g

Question: And the Heart-to-Blood ratio (15 min post-injection)?
Answer: 192.24 ± 13.25

Question: What about the Heart-to-Liver ratio (15 min post-injection) of the same compound?
Answer: 1.93 ± 0.26

Question: And the Heart-to-Lungs ratio (15 min post-injection)?
Answer: 4.44 ± 0.26

Question: And the “absolute myocardial uptake value” (15 min post-injection)?
Answer: 3.37±0.15 % ID/g

Question: What about the “Biodistribution: Large Intestine” value (15 min post-injection) of the same compound?
Answer: 6.53 ± 0.73 % ID

Question: And the “Biodistribution: Small Intestine” value (15 min post-injection)?
Answer: 12.23 ± 2.35 % ID

Question: What about the “Biodistribution: Stomach” value (15 min post-injection) of the same compound?
Answer: 1.05 ± 0.04 % ID

Question: And the “Biodistribution: Blood” value (30 min post-injection)?
Answer: 0.016 ± 0.002 ID %/g

Question: What about the “Biodistribution: Bone” value (30 min post-injection) of the same compound?
Answer: 0.15 ± 0.01 ID %/g

Question: What about the “Biodistribution: Heart” value (30 min post-injection) of the same compound?
Answer: 3.45 ± 0.19 ID %/g

Question: And the “Biodistribution: Kidney” value (30 min post-injection)?
Answer: 5.21 ± 1.54 ID %/g

Question: And the “Biodistribution: Liver” value (30 min post-injection)?
Answer: 1.11± 0.16 ID %/g

Question: And the “Biodistribution: Lungs” value (30 min post-injection)?
Answer: 0.575 ± 0.002 ID %/g

Question: And the “Biodistribution: Muscle” value (30 min post-injection)?
Answer: 0.37 ± 0.06 ID %/g

Question: And the “Biodistribution: Spleen” value (30 min post-injection)?
Answer: 0.88 ± 0.13 ID %/g

Question: What about the Heart-to-Blood ratio (30 min post-injection) of the same compound?
Answer: 220.61±45.73

Question: What about the Heart-to-Liver ratio (30 min post-injection) of the same compound?
Answer: 3.30 ± 0.42

Question: What about the Heart-to-Lungs ratio (30 min post-injection) of the same compound?
Answer: 6.00 ± 0.31

Question: What about the “absolute myocardial uptake value” (30 min post-injection) of the same compound?
Answer: 3.45±0.19 % ID/g

Question: What about the “Biodistribution: Large Intestine” value (30 min post-injection) of the same compound?
Answer: 14.01 ± 1.87 % ID

Question: What about the “Biodistribution: Small Intestine” value (30 min post-injection) of the same compound?
Answer: 17.82 ± 0.19 % ID

Question: And the “Biodistribution: Stomach” value (30 min post-injection)?
Answer: 0.65 ± 0.11 % ID

Question: What about the “Biodistribution: Blood” value (60 min post-injection) of the same compound?
Answer: 0.009 ± 0.001 ID %/g

Question: And the “Biodistribution: Bone” value (60 min post-injection)?
Answer: 0.14 ± 0.01 ID %/g

Question: What about the “Biodistribution: Heart” value (60 min post-injection) of the same compound?
Answer: 3.98 ± 0.25 ID %/g

Question: And the “Biodistribution: Kidney” value (60 min post-injection)?
Answer: 4.90 ± 0.17 ID %/g

Question: And the “Biodistribution: Liver” value (60 min post-injection)?
Answer: 0.60 ± 0.12 ID %/g

Question: What about the “Biodistribution: Lungs” value (60 min post-injection) of the same compound?
Answer: 0.28 ± 0.07 ID %/g

Question: And the “Biodistribution: Muscle” value (60 min post-injection)?
Answer: 0.77 ± 0.13 ID %/g

Question: What about the “Biodistribution: Spleen” value (60 min post-injection) of the same compound?
Answer: 0.34 ± 0.04 ID %/g

Question: What about the Heart-to-Blood ratio (60 min post-injection) of the same compound?
Answer: 449.52±67.26

Question: And the Heart-to-Lungs ratio (60 min post-injection)?
Answer: 14.35 ± 2.38

Question: And the “absolute myocardial uptake value” (60 min post-injection)?
Answer: 3.98±0.25 % ID/g

Question: And the “Biodistribution: Large Intestine” value (60 min post-injection)?
Answer: 6.44 ± 0.70 % ID

Question: What about the “Biodistribution: Small Intestine” value (60 min post-injection) of the same compound?
Answer: 15.98 ± 1.55 % ID

Question: What about the “Biodistribution: Stomach” value (60 min post-injection) of the same compound?
Answer: 0.46 ± 0.11 % ID

Question: What about the “Biodistribution: Blood” value (120 min post-injection) of the same compound?
Answer: 0.020 ± 0.004 ID %/g

Question: What about the “Biodistribution: Bone” value (120 min post-injection) of the same compound?
Answer: 0.12 ± 0.01 ID %/g

Question: What about the “Biodistribution: Heart” value (120 min post-injection) of the same compound?
Answer: 2.83 ± 0.25 ID %/g

Question: What about the “Biodistribution: Kidney” value (120 min post-injection) of the same compound?
Answer: 4.03 ± 0.24 ID %/g

Question: And the “Biodistribution: Liver” value (120 min post-injection)?
Answer: 0.36 ± 0.05 ID %/g

Question: What about the “Biodistribution: Lungs” value (120 min post-injection) of the same compound?
Answer: 0.27 ± 0.03 ID %/g

Question: And the “Biodistribution: Muscle” value (120 min post-injection)?
Answer: 0.60 ± 0.11 ID %/g

Question: And the “Biodistribution: Spleen” value (120 min post-injection)?
Answer: 0.25 ± 0.04 ID %/g

Question: What about the Heart-to-Blood ratio (120 min post-injection) of the same compound?
Answer: 146.14±22.27

Question: What about the Heart-to-Liver ratio (120 min post-injection) of the same compound?
Answer: 7.91 ± 0.50

Question: And the Heart-to-Lungs ratio (120 min post-injection)?
Answer: 10.43 ± 0.62

Question: And the “absolute myocardial uptake value” (120 min post-injection)?
Answer: 2.83±0.25 % ID/g

Question: What about the “Biodistribution: Large Intestine” value (120 min post-injection) of the same compound?
Answer: 19.30 ± 1.11 % ID

Question: What about the “Biodistribution: Small Intestine” value (120 min post-injection) of the same compound?
Answer: 24.46 ± 3.26 % ID

Question: What about the “Biodistribution: Stomach” value (120 min post-injection) of the same compound?
Answer: 0.92 ± 0.03 % ID

Question: And the “Biodistribution: Blood” value (240 min post-injection)?
Answer: 0.016 ± 0.002 ID %/g

Question: And the “Biodistribution: Bone” value (240 min post-injection)?
Answer: 0.036 ± 0.005 ID %/g

Question: And the “Biodistribution: Heart” value (240 min post-injection)?
Answer: 2.29 ± 0.05 ID %/g

Question: And the “Biodistribution: Kidney” value (240 min post-injection)?
Answer: 2.07 ± 0.17 ID %/g

Question: What about the “Biodistribution: Liver” value (240 min post-injection) of the same compound?
Answer: 0.17 ± 0.03 ID %/g

Question: What about the “Biodistribution: Lungs” value (240 min post-injection) of the same compound?
Answer: 0.15 ± 0.02 ID %/g

Question: And the “Biodistribution: Muscle” value (240 min post-injection)?
Answer: 0.48 ± 0.06 ID %/g

Question: What about the “Biodistribution: Spleen” value (240 min post-injection) of the same compound?
Answer: 0.12 ± 0.02 ID %/g

Question: And the Heart-to-Blood ratio (240 min post-injection)?
Answer: 143.42±25.82

Question: And the Heart-to-Liver ratio (240 min post-injection)?
Answer: 11.82 ± 1.15

Question: What about the Heart-to-Lungs ratio (240 min post-injection) of the same compound?
Answer: 15.97 ± 2.41

Question: And the “absolute myocardial uptake value” (240 min post-injection)?
Answer: 2.29±0.05 % ID/g

Question: And the “Biodistribution: Large Intestine” value (240 min post-injection)?
Answer: 27.81 ± 4.20 % ID

Question: What about the “Biodistribution: Small Intestine” value (240 min post-injection) of the same compound?
Answer: 13.00 ± 1.55 % ID

Question: What about the “Biodistribution: Stomach” value (240 min post-injection) of the same compound?
Answer: 0.30 ± 0.08 % ID

Question: And the “absolute myocardial uptake peak value” (peak at 60 min post-injection)?
Answer: 3.98±0.25 % ID/g
